Laboratory results as given in US20110160121A1, “UNACYLATED GHRELIN AND ANALOGS AS THERAPEUTIC AGENTS FOR VASCULAR REMODELING IN DIABETIC PATIENTS AND TREATMENT OF CARDIOVASCULAR DISEASE” (ALIZE PHARMA SAS, priority 2008, published 2011).
Where no end group is shown, it is not given here.

Assays:
cardiomyocytes = conditions: Ref. 8; cited from earlier work
CAC = CAC senescence (acidic beta-gal / SA-beta-gal activity) in cultured CAC; format: cell-based, human; conditions: FIG. 2A
Experimental: To this end, the effect of AGE treatment, alone or in combination with UAG, was first evaluated on SA-β-gal activity. […] In addition, AGE-induced p53 accumulation and senescent like-growth arrest were prevented by silencing p53 (FIG. 2C).
CAC Senescence—Senescence was evaluated by acidic β-gal activity on CAC recovered from normal subjects cultured in EGM2 medium for 4 days with UAG or AGE+UAG and saline- or UAG-treated diabetic patients (Ref. 22). Briefly, CAC were washed in phosphate-buffered saline, fixed for 3 min at room temperature in 2% paraformaldehyde, washed, and incubated for 24 h at 37° C. with fresh SA-β-gal stain solution: 1 mg/ml 5-bromo-4-chloro-3-indolyl β-D-galactopyranoside (X-gal), 5 mM/liter potassium ferrocyanide, 5 mM/liter ferricyanide, 150 mM/liter NaCl, 2 mM/liter MgCl2, 0.01% sodium deoxycholate, and 0.02% Nonidet P-40. SA-β-gal-positive cells were counted manually by 3 independent investigators.

GHSR-1a = GHSR-1a (Homo sapiens, UniProt Q92847); conditions: Ref. 7; cited from earlier work
p53, p21, pRb = assay: Western blot of p53, p21, phospho-Rb in CAC recovered from UAG-treated diabetic patients; parameters: species or system human; conditions: type 2 diabetic patients, UAG administered in vivo, CAC recovered after 12 hours; FIG. 2E
Experimental: After 12 hours of treatment, CAC were recovered from UAG treated and untreated patients and cultured.
All the subjects underwent the following testing session: • UAG (3.0 μg/kg/h iv. as infusion for 12 h from 0 to 12 hours); • isotonic saline (infusion from 0 to 12 hours).
Western Blot Analysis—CAC from healthy donors cultured in the presence of UAG, in combination or not with AGE, and CAC recovered from diabetic patients treated with saline or UAG were lysed. Protein concentration was detected as previously described (Ref. 24). 50 μg of proteins were separated on SDS-polyacrylamide gels and transferred to nitrocellulose membranes. Reaction with anti-p53, anti p21 and anti-phospho-Rb antibodies and detection with an enhanced chemiluminescence detection system (Amersham Biosciences) were performed as described previously (Ref. 20).

GHSR-1a, sequence (Q92847 whole entry): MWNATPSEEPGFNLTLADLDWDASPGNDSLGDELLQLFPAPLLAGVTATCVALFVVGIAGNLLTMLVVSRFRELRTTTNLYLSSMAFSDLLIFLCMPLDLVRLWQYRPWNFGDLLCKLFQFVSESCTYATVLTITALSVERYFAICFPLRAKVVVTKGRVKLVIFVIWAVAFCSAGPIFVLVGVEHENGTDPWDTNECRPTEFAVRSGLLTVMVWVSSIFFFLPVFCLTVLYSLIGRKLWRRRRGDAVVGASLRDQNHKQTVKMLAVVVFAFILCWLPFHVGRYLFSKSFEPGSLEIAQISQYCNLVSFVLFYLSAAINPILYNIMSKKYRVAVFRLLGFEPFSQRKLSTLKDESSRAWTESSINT

Substance: 1-NH2Gly-Ser-Ser-Phe-Leu-Ser-Pro-Glu-His-Gln-Arg-Val-Gln-Gln-Arg-Lys-Glu-Ser-Lys-Lys-Pro-Pro-Ala-Lys-Leu-Gln-Pro-Arg-28 (H-GSSFLSPEHQRVQQRKESKKPPAKLQPR; ends and bridges not checked; listed as Homo sapiens) [UAG]
- inhibition of experimentally-induced cell death (cardiomyocytes): inhibit experimentally-induced cell death
- number of SA-beta-gal positive cells (CAC; UAG added to AGE-cultured CAC): significant reduction in the number of SA-β-gal positive cells
- number of senescent cells (SA-beta-gal activity) (CAC; cultured CAC, UAG alone): reduce the number of senescent cells
- binding to GHSR-1a (GHSR-1a): fails to bind GHSR-1a
- p53 accumulation, phosphorylation of Rb and p21 expression (p53, p21, pRb): prevented p53 accumulation, phosphorylation of Rb and p21 expression
